# In patent publication US11471467B2, “Ruthenium complexes for treating cancer which comprises cancer stem cells” (UNIVERSIDADE DE SANTIAGO DE COMPOSTELA, priority 2016, dated 2022):
# How the values were obtained:
# c-MYC = c-MYC protein expression by Western blot in HeLa cells; type: cell-based
# Experimental: FIG. 11. (Left) Analysis of the expression levels of c-MYC (light colored bars) and ALAS1 (dark colored bars) by means of qRT-PCR. HeLa cells were incubated for 16 h or 48 h with 100 μM of complex 1 (RuCl), TMPyP4, or 50 μM of 5-FU. The levels are expressed in relation to the expression levels of the GAPDH gene. The values are the average of three experiments, and the error bars indicate standard error. (Right) Analysis of the expression of c-MYC by means of Western blot. HeLa cells were incubated for 16 h with 100 μM of complex 1 (RuCl) and then lysed, and c-MYC was detected by means of SDS-PAGE followed by Western blot with an anti-MYC antibody (right, upper panel). The relative amount of protein in two independent experiments was quantified by means of densitometry (right, lower panel). The data is represented as the factor of change with respect to untreated controls. The error bars indicate the standard deviation of the factor of change with respect to untreated controls.
# FIG. 14. (Left) Transcription levels of c-MYC determined by means of qRT-PCR in the dark (black bars) or after irradiation (60 min, white bars). […] The expression values are relative to the expression of the GAPDH gene. (Right) Expression levels of c-MYC protein determined by means of Western blot in the presence or absence of complex 5. The relative amount of protein with respect to the expression levels of β-actin was quantified by means of densitometry (lower panel). The experimental method was similar to the one described in FIG. 11.
# FIG. 15. […] The light colored bars correspond to expression levels of c-MYC under irradiation conditions whereas the dark colored bars correspond to darkness conditions. […] The relative levels of protein with respect to the expression levels of β-actin were quantified by means of densitometry.
# HeLa cells were incubated to a confluence of 50% in the presence of the indicated concentrations of the assayed agents for 16 h. […] The c-MYC protein was detected by means of an anti-MYC antibody (Santa-Cruz Biotechnologies). […]
# [1] = tested on: Panc185 and PancA6L cells; test: qRT-PCR gene expression in adherent PDAC cultures; type: cell-based; conditions: 100 μM, 24 hours
# Experimental: FIG. 19. […] The RNA of Panc185 and PancA6L cells was extracted 24 hours after treatment with 100 μM of RuH2O. qRT-PCR analysis of Oct3/4, Sox2, and PGC1alpha was performed in cDNA generated from treated samples. […] Panc185 cells are also interchangeably referred to herein as 185 and 185 scd and Pacn6AL cells are also interchangeably referred to herein as A6L.
# Furthermore, a reduction in PGC1alpha expression, a known c-MYC target, and a reduction in pluripotency-associated genes Oct3/4 and Sox2 were observed after treatment with 100 μM of RuH2O for 24 hours (FIG. 19).
# Panc185 cells = test: Tumorigenicity of pretreated PDAC cells injected subcutaneously into NOD-SCID mice; type: in vivo
# Experimental: FIG. 22. Effects of RuH2O on PDAC sphere formation. (A) Work sequence of the experiment for evaluating the effect of RuH2O in PDAC CSC (B) Light micrographs of spheres derived from Panc185 and PancA6L cells after 10 days of treatment with 250 μM of RuH2O FIG. 23. Effects of RuH2O on PDAC tumorigenicity in vivo. Panc185 cells were pretreated with RuH2O before subcutaneous injection into NOD-SCID (non-obese diabetic, severe combined immunodeficiency) mice. Tumors were extracted 12 weeks after injection and analyzed. A) Photographs of the tumors extracted from NOD-SCID mice 12 weeks after being injected with 10^4 or 10^3 Panc185 cells and pretreated with control (CTL) or 250 μM of RuH2O. (B) Summary of the numbers of tumors detected per injection with 10^4 or 10^3 Panc185 cells and pretreated with control (CTL) or 250 μM of RuH2O. (C) Weights of the tumors extracted from NOD-SCID mice 12 weeks after being injected with 10^4 or 10^3 Panc185 cells and pretreated with control (CTL) or 250 μM of RuH2O.
# FIG. 27. Tumorigenicity of PDAC cells after treatment with RuH2O. PDAC cells were treated with the indicated concentrations of RuH2O for 48 hours and then injected subcutaneously into NOD-SCID mice. Tumors were extracted 7 or 11 weeks after injection.
# The spheres were then disassociated and equal numbers of control-treated cells and RuH2O-treated cells were injected subcutaneously into immunocompromised NOD-SCID mice to evaluate the tumorigenicity thereof. Twelve weeks after the injection, the tumors were extracted and weighed. […] While 4 out of 4 injections and 5 out of 6 injections with 10,000 and 1,000 control-treated cells, respectively, led to tumors, only 1 out of every 6 injections with 10,000 RuH2O-treated cells led to tumor. […] Furthermore, the only tumor that developed in the mouse injected with 10,000 RuH2O-treated cells weighed 53 times less than the tumors formed in control-treated mice (0.0058 g with respect to 0.3118 g).
# The trypsinized cells were then: 1) placed in a plate at a low confluence to evaluate their clonogenicity (FIG. 25); 2) repeatedly cultured in ultra-low adherent plates in serum-free DMEM/F12 supplemented with B27 for intervals of 7 days to evaluate sphere formation capacity over multiple generations (FIG. 26); and 3) subcutaneously injected into NOD-SCID mice to check their tumorigenicity as described above (FIG. 27).
# Finally, the tumorigenicity of sphere-rich CSCs was studied as described above.
substance,measurement,setting,value
[Ru(terpy) (bpy)H2O]^2+ [complex 2],c-MYC protein expression,c-MYC; in the dark,active both in the dark and upon being irradiated
same,c-MYC protein expression,c-MYC; under irradiation with light,active both in the dark and upon being irradiated
same,Oct3/4 expression,[1],reduction
same,PGC1alpha expression,[1],reduction
same,Sox2 expression,[1],reduction
same,tumor formation,"Panc185 cells; 1,000 sphere-derived cells pretreated with 250 μM, NOD-SCID mice, 12 weeks",Tumors did not form
same,"tumor weight, times less than control-treated","Panc185 cells; 10,000 pretreated cells, 12 weeks",53 times
same,tumor weight,"Panc185 cells; 10,000 pretreated cells, 12 weeks, the only tumor",0.0058 g
same,tumorigenicity,"Panc185 cells; adherent cultures treated 48 hours, injected subcutaneously into NOD-SCID mice, 7 or 11 weeks","prevents clonogenicity, self-regeneration, and tumorigenicity"
